In PubChem BioAssay AID1963852 (Molecular Pharmacology Branch, DTP, NCI, 2024):

Test system: 282377-053-R-J1-PDC complex spheroid viability
Test: Anticancer human tumor 282377-053-R-J1-PDC patient-derived colon adenocarcinoma cell line growth inhibition [POLQ]
Conditions: for IC50: curve of first compound; for viability, T/C: stronger effect = lower value
Method in brief: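 Growth inhibition in 3D: complex spheroids (tumor PDC, HUVEC, MSC) treated with POLQ inhibitor combinations; where Cmax unknown, highest tested concentration 10 microM, except SN-38 at 1 microM.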

[1] = second compound 0.0316 µM, first compound 0.0316 µM
[2] = second compound 0.0316 µM, first compound 0.1 µM
[3] = second compound 0.0316 µM, first compound 0.316 µM
[4] = second compound 0.0316 µM, first compound 1 µM
[5] = second compound 0.0316 µM, first compound 3.16 µM
[6] = second compound 0.0316 µM, first compound 10 µM
[7] = second compound 0.1 µM, first compound 0.0316 µM
[8] = second compound 0.1 µM, first compound 0.1 µM
[9] = second compound 0.1 µM, first compound 0.316 µM
[10] = second compound 0.1 µM, first compound 1 µM
[11] = second compound 0.1 µM, first compound 3.16 µM
[12] = second compound 0.1 µM, first compound 10 µM
[13] = second compound 0.316 µM, first compound 0.0316 µM
[14] = second compound 0.316 µM, first compound 0.1 µM
[15] = second compound 0.316 µM, first compound 0.316 µM
[16] = second compound 0.316 µM, first compound 1 µM
[17] = second compound 0.316 µM, first compound 3.16 µM
[18] = second compound 0.316 µM, first compound 10 µM
[19] = second compound 1 µM, first compound 0.0316 µM
[20] = second compound 1 µM, first compound 0.1 µM
[21] = second compound 1 µM, first compound 0.316 µM
[22] = second compound 1 µM, first compound 1 µM
[23] = second compound 1 µM, first compound 3.16 µM
[24] = second compound 1 µM, first compound 10 µM
[25] = second compound 3.16 µM, first compound 0.0316 µM
[26] = second compound 3.16 µM, first compound 0.1 µM
[27] = second compound 3.16 µM, first compound 0.316 µM
[28] = second compound 3.16 µM, first compound 1 µM
[29] = second compound 3.16 µM, first compound 3.16 µM
[30] = second compound 3.16 µM, first compound 10 µM
[31] = second compound 10 µM, first compound 0.0316 µM
[32] = second compound 10 µM, first compound 0.1 µM
[33] = second compound 10 µM, first compound 0.316 µM
[34] = second compound 10 µM, first compound 1 µM
[35] = second compound 10 µM, first compound 3.16 µM
[36] = second compound 10 µM, first compound 10 µM
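Also: spheroids exposed to compounds for seven days.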
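For viability, T/C in this document: 100% = DMSO vehicle control viability.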

C=CC(=O)N1CCN(c2nc(=O)n(-c3c(C)ccnc3C(C)C)c3nc(-c4c(O)cccc4F)c(F)cc23)C(C)C1 (stereo unspecified) + COC1C(OC(N)=O)C(O)C(Oc2ccc3c(O)c(NC(=O)c4ccc(O)c(CC=C(C)C)c4)c(=O)oc3c2C)OC1(C)C
IC50 (second compound 0.0316 µM): > 10 µM
IC50 (second compound 0.1 µM): > 10 µM
IC50 (second compound 0.316 µM): > 10 µM
IC50 (second compound 1 µM): > 10 µM
IC50 (second compound 3.16 µM): > 10 µM
IC50 (second compound 10 µM): > 10 µM
viability, T/C [1]: 114%
viability, T/C [2]: 103%
viability, T/C [3]: 102%
viability, T/C [4]: 94.9%
viability, T/C [5]: 111%
viability, T/C [6]: 94.4%
viability, T/C [7]: 107%
viability, T/C [8]: 116%
viability, T/C [9]: 96.5%
viability, T/C [10]: 115%
viability, T/C [11]: 108%
viability, T/C [12]: 102%
viability, T/C [13]: 105%
viability, T/C [14]: 124%
viability, T/C [15]: 113%
viability, T/C [16]: 100%
viability, T/C [17]: 113%
viability, T/C [18]: 77%
viability, T/C [19]: 94.9%
viability, T/C [20]: 114%
viability, T/C [21]: 114%
viability, T/C [22]: 98.1%
viability, T/C [23]: 89.6%
viability, T/C [24]: 85.4%
viability, T/C [25]: 115%
viability, T/C [26]: 113%
viability, T/C [27]: 102%
viability, T/C [28]: 90.1%
viability, T/C [29]: 95.2%
viability, T/C [30]: 90.5%
viability, T/C [31]: 106%
viability, T/C [32]: 109%
viability, T/C [33]: 105%
viability, T/C [34]: 114%
viability, T/C [35]: 112%
viability, T/C [36]: 111%

C=CC(=O)N1CCN(c2nc(=O)n(-c3c(C)ccnc3C(C)C)c3nc(-c4c(O)cccc4F)c(F)cc23)C(C)C1 (stereo unspecified) + Nc1ccc(C#CCN(C(=O)Cc2ncc(C(F)(F)F)cc2C(F)(F)F)c2ccc(F)cc2)nn1
IC50 (second compound 0.0316 µM): > 10 µM
IC50 (second compound 0.1 µM): > 10 µM
IC50 (second compound 0.316 µM): > 10 µM
IC50 (second compound 1 µM): > 10 µM
IC50 (second compound 3.16 µM): > 10 µM
IC50 (second compound 10 µM): > 10 µM
viability, T/C [1]: 95%
viability, T/C [2]: 107%
viability, T/C [3]: 94%
viability, T/C [4]: 90.8%
viability, T/C [5]: 104%
viability, T/C [6]: 97.5%
viability, T/C [7]: 95.3%
viability, T/C [8]: 107%
viability, T/C [9]: 91%
viability, T/C [10]: 99.7%
viability, T/C [11]: 113%
viability, T/C [12]: 83.4%
viability, T/C [13]: 90.4%
viability, T/C [14]: 88.6%
viability, T/C [15]: 100%
viability, T/C [16]: 98.7%
viability, T/C [17]: 101%
viability, T/C [18]: 94.9%
viability, T/C [19]: 108%
viability, T/C [20]: 90.9%
viability, T/C [21]: 111%
viability, T/C [22]: 91.3%
viability, T/C [23]: 97.7%
viability, T/C [24]: 86.9%
viability, T/C [25]: 106%
viability, T/C [26]: 100%
viability, T/C [27]: 92.8%
viability, T/C [28]: 108%
viability, T/C [29]: 91%
viability, T/C [30]: 87.9%
viability, T/C [31]: 112%
viability, T/C [32]: 107%
viability, T/C [33]: 114%
viability, T/C [34]: 114%
viability, T/C [35]: 98.7%
viability, T/C [36]: 106%

C#Cc1c(F)ccc2cc(O)cc(-c3ncc4c(N5CC6CCC(C5)N6)nc(OCC56CCCN5CC(F)C6)nc4c3F)c12 (stereo unspecified) + Nc1ccc(C#CCN(C(=O)Cc2ncc(C(F)(F)F)cc2C(F)(F)F)c2ccc(F)cc2)nn1
IC50 (second compound 0.0316 µM): > 10 µM
IC50 (second compound 0.1 µM): > 10 µM
IC50 (second compound 0.316 µM): > 10 µM
IC50 (second compound 1 µM): > 10 µM
IC50 (second compound 3.16 µM): > 10 µM
IC50 (second compound 10 µM): > 10 µM
viability, T/C [1]: 101%
viability, T/C [2]: 114%
viability, T/C [3]: 91.2%
viability, T/C [4]: 97.5%
viability, T/C [5]: 99.8%
viability, T/C [6]: 84.8%
viability, T/C [7]: 99.8%
viability, T/C [8]: 108%
viability, T/C [9]: 83.5%
viability, T/C [10]: 116%
viability, T/C [11]: 99.5%
viability, T/C [12]: 79.6%
viability, T/C [13]: 97.1%
viability, T/C [14]: 106%
viability, T/C [15]: 94.9%
viability, T/C [16]: 85.2%
viability, T/C [17]: 118%
viability, T/C [18]: 110%
viability, T/C [19]: 93%
viability, T/C [20]: 121%
viability, T/C [21]: 105%
viability, T/C [22]: 92.7%
viability, T/C [23]: 94.7%
viability, T/C [24]: 96.8%
viability, T/C [25]: 121%
viability, T/C [26]: 120%
viability, T/C [27]: 94%
viability, T/C [28]: 107%
viability, T/C [29]: 90.2%
viability, T/C [30]: 96.3%
viability, T/C [31]: 117%
viability, T/C [32]: 107%
viability, T/C [33]: 109%
viability, T/C [34]: 112%
viability, T/C [35]: 90.8%
viability, T/C [36]: 119%
